Test results published in article PMC3781954 (Archives of biochemistry and biophysics, 2013).

Legend:
Rabbit CYP2E1 [1] = target: T1, Rabbit CYP2E1 (Oryctolagus cuniculus, UniProt P08682); experiment: Spectral binding studies; settings: for fold increase in affinity (Kd) relative to pyrazole: catalytic site
Rabbit CYP2E1 [2] = target: T1, Rabbit CYP2E1; experiment: Inhibition of 4-nitrophenol oxidation to 4-nitrocatechol by reconstituted CYP2E1; settings: for fold more potent than pyrazole: inhibition of CYP2E1 4-nitrophenol metabolism; for Inhibition Mechanism: most probable mechanism by DynaFit model discrimination, substrate 4-nitrophenol; for kcat2: turnover of the ESI complex, 95% confidence intervals in parentheses
CYP2E1 [3] = target: CYP2E1 (Oryctolagus cuniculus, UniProt P08682); experiment: Spectral binding studies; parameters: species or system rabbit; settings: rabbit, pH 7.4
Chain of CYP2E1 (Oryctolagus cuniculus, UniProt P08682) (P08682 whole entry): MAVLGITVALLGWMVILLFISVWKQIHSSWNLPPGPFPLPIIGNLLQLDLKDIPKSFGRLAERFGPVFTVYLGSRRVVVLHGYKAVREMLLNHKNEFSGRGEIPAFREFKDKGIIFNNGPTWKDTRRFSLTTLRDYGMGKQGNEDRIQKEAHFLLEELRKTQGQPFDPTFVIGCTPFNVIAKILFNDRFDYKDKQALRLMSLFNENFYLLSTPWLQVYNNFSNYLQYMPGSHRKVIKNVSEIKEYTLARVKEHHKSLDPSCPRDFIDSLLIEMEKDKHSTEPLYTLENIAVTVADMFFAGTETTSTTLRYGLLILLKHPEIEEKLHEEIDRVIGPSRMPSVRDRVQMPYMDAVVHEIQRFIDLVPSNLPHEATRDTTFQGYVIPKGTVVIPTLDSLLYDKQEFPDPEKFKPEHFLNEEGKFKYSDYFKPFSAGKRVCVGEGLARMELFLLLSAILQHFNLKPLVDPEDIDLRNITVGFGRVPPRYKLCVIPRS

CYP2E1 [4] = settings: positive cooperativity; ref [4], [6]; cited from earlier work

T1 sequence (P08682 whole entry): as above

Inhibition Mechanism (Rabbit CYP2E1 [2]) | kcat2 (Rabbit CYP2E1 [2]) | Kd (Rabbit CYP2E1 [1]) [µM] | SMILES | also measured
Mixed, coop. substrate | 6.6 (2.3 to 9.6) min^−1 |  | c1n[nH]c2c1CCCC2 | fold increase in affinity (Kd) relative to pyrazole (Rabbit CYP2E1 [1]; spectral binding): 800 fold; fold more potent than pyrazole (Rabbit CYP2E1 [2]): 100 fold
 |  |  | Cc1cc(C)[nH]n1 [3,5-dimethylpyrazole] | spectral shift upon binding (Rabbit CYP2E1 [1]; concentrations as high as 1000 µM): did not induce a spectral; inhibition of the 4-nitrophenol reaction (Rabbit CYP2E1 [2]; concentration as high as 250 µM (data not shown)): no inhibition
Mixed, coop. substrate | 8.7 (7.0 to 10) min^−1 | 11 | Cc1cc[nH]n1 [3-methylpyrazole] | fold increase in affinity (Kd) relative to pyrazole (Rabbit CYP2E1 [1]; spectral binding): 2 fold; Kd (CYP2E1 [3]): 1700 µM; fold higher affinity for the free enzyme than the ES complex (Rabbit CYP2E1 [2]): two-fold
Competitive |  | 22 | c1ccc(-c2cc[nH]n2)cc1 [3-phenylpyrazole] | 
 |  |  | CCOc1ccc2ccc(=O)oc2c1 [7-ethoxycoumarin] | Hill coefficient (CYP2E1 [4]): 1.6
 |  | 550 | c1ccc2[nH]cnc2c1 [benzimidazole] | 
 |  |  | Cc1cccc(C)c1 [m-xylene] | Hill coefficient (CYP2E1 [4]): 1.4

SMILES | Inhibition Mechanism (Rabbit CYP2E1 [2]) | kcat2 (Rabbit CYP2E1 [2]) | Kd (Rabbit CYP2E1 [1]) [µM] | also measured
c1ccc2[nH]ncc2c1 [indazole] | Mixed, coop. substrate | 11 (9.0 to 13) min^−1 |  | fold increase in affinity relative to tetrahydroindazole (Rabbit CYP2E1 [1]; spectral binding, aromatization of the second ring): about five-fold; fold more potent than pyrazole (Rabbit CYP2E1 [2]): more than 200 fold
c1cn[nH]c1 [pyrazole] | Mixed, coop. substrate |  |  | 
